Source: BindingDB's records for patent US10626103 (Celgene Quanticel Research, 2020)

Biological target: Lysine-specific histone demethylase 1A (Homo sapiens, UniProt O60341)
Experiment: In Vitro Enzyme Inhibition Assay - LSD-1
Experimental: The enzymatic assay of LSD1 activity is based on Time Resolved-Fluorescence Resonance Energy Transfer (TR-FRET) detection. […] Plates were read by EnVision Multilabel Reader in TR-FRET mode (excitation at 320 nm, emission at 615 nm and 665 nm) after 1 hour incubation at room temperature.

COc1ccc(-c2c(-c3ccc(C#N)c(F)c3)cc(C(=O)N3CCC[C@@H](N)C3)n2CCCC(=O)O)cc1 [US10626103, Example 41]
IC50: < 100 nM
